From patent publication US4335127A, “Piperidinylalkyl quinazoline compounds, composition and method of use” (Janssen Pharmaceutica, N.V., priority 1979, dated 1982) come the findings set out here.

In assay [1] the test system is Caudal Artery of the Rat (effect of serotonin). Briefly: Antagonistic Activity on the Effect of Serotonin on the Caudal Artery of the Rat (Test 1). The settings on record: serotonin 40 ng/ml; 5 minutes after adding the drug; rat caudal artery strips. On the procedure:
Caudal arteries from fasted male rats (210-235 g) are used in the test. Two helical strips having a length of 5-6 cm and a width of 2 mm are obtained from each artery and mounted vertically in a 100 ml organ bath containing an oxygenated Krebs-Henseleit solution. Submaximal contractions of the arterial strips are produced by adding single doses of serotonin (40 ng/ml) to the organ bath for 2 minutes with each time an interval of 10 minutes. The amplitude of the contraction is measured before and 5 minutes after adding the drug. After washing out, the agonist is added again three times in order to see whether the contraction is restored and normalized. […] In this connection the ED50 -values are the minimal concentrations of the concerned drugs which reduce the amplitude of the contraction to at least 50% of its normal value.

Assay [2] relates to lesions in the glandular area of the stomach and distension of the stomach induced by compound 48/80 in rats. Briefly: Gastric lesion test: lesions induced by compound 48/80 (Test 2). It is filed as in vivo, rat (male, Wistar inbred strain). The note with it: oral, 2 hours before compound 48/80 (1 mg/kg i.v.); stomachs inspected 4 hours after. On the procedure: (§1) The shock, followed by dead, can be avoided if the rats are pretreated with a classical H 1 antagonist.
(§2) Male rats of a Wistar inbred strain, weighing 220-250 g, are starved overnight, water being available ad libitum. The test compounds are administered orally as a solution or as a suspension in aqueous medium. A control rat and a "blank" rat receive the test compound. One hour later 5-[4-(diphenylmethyl)-1-piperazinylmethyl]-1-methyl-1H-benzimidazole-2-methanol is administered subcutaneously to all rats at the dose of 2.5 mg/kg. […] Five minutes after the injection the intensity of purple-blue coloration (cyanosis) of the extremities is scored as 0 (absent), +(moderate) or ++(intense). Four hours after the intravenous injection of compound 48/80 the rats are decapitated and the stomachs are removed. Subsequently the stomachs are inspected for distension and contents (blood, fluid, food) and thoroughly rinsed. The macroscopic lesions are scored from 0 to + ++, 0 corresponding to complete absence of visible lesions and the highest score corresponding to reddish rough patches covering more than half the glandular area.

Assay [3] deals with cyanosis of ears and extremities induced by compound 48/80 in rats. The experiment in a line: Cyanosis of ears and extremities induced by compound 48/80 (Test 2). The note with it: Rattus norvegicus, po, 5 min; read-out: Cyanosis ED50 (dose at which cyanosis of ears and extremities is completely absent in 50% of the test rats). The format is in vivo, rat (male, Wistar inbred strain). The method, then:
as §1, §2

One may read the ED50 as the dose at which the effect has come halfway, by size or by number of responders. For `Cn1c(=O)n(CCN2CCC(C(=O)c3ccc(F)cc3)CC2)c(=O)c2ccccc21`, in assay [1], the “Caudal artery ED50 (minimal concentration which reduces the amplitude of the serotonin-induced contraction to at least 50% of its normal value)” value came to 0.7 ng/mL. Also, in assay [2], the “G. lesion ED50 (dose at which distension of the stomach and lesions in the glandular area are completely absent in 50% of the test rats)” value is reported as 1.25 mg/kg. Further, the ED50 in assay [3] was 0.16 mg/kg.

With `O=c1[nH]c2ccccc2c(=O)n1CCN1CCC(C2(c3ccc(F)cc3)OCCO2)CC1`, the “Caudal artery ED50 (minimal concentration which reduces the amplitude of the serotonin-induced contraction to at least 50% of its normal value)” value in assay [1] is 11 ng/mL. The “G. lesion ED50 (dose at which distension of the stomach and lesions in the glandular area are completely absent in 50% of the test rats)” value in assay [2] is given as 0.31 mg/kg. In addition, the 50% effective dose (ED50) in assay [3] was 0.16 mg/kg.

For `O=C(c1ccc(Cl)cc1)C1CCN(CCn2c(=O)[nH]c3ccccc3c2=O)CC1`, in assay [1], the “Caudal artery ED50 (minimal concentration which reduces the amplitude of the serotonin-induced contraction to at least 50% of its normal value)” value came to 2.5 ng/mL.

For `COc1ccc(C(=O)C2CCN(CCn3c(=O)[nH]c4ccccc4c3=O)CC2)cc1`, in assay [1], the “Caudal artery ED50 (minimal concentration which reduces the amplitude of the serotonin-induced contraction to at least 50% of its normal value)” value was determined as 2.5 ng/mL.

As for `O=C(c1ccc(F)cc1)C1CCN(CCCn2c(=O)[nH]c3ccccc3c2=O)CC1`, in assay [1], the “Caudal artery ED50 (minimal concentration which reduces the amplitude of the serotonin-induced contraction to at least 50% of its normal value)” value is 1.25 ng/mL. For the same molecule, the “G. lesion ED50 (dose at which distension of the stomach and lesions in the glandular area are completely absent in 50% of the test rats)” value in assay [2] is given as 2.5 mg/kg.

Regarding `Cc1ccc2[nH]c(=O)n(CCN3CCC(C(=O)c4ccc(F)cc4)CC3)c(=O)c2c1`, the “Caudal artery ED50 (minimal concentration which reduces the amplitude of the serotonin-induced contraction to at least 50% of its normal value)” value in assay [1] is 1.3 ng/mL. In assay [2], the “G. lesion ED50 (dose at which distension of the stomach and lesions in the glandular area are completely absent in 50% of the test rats)” value is 2.5 mg/kg. Also, the 50% effective dose (ED50) in assay [3] is 0.63 mg/kg.

Take `O=C(c1ccc(F)cc1)C1CCN(CCn2c(=O)[nH]c3cc(Cl)ccc3c2=O)CC1`: the “Caudal artery ED50 (minimal concentration which reduces the amplitude of the serotonin-induced contraction to at least 50% of its normal value)” value in assay [1] came to 2 ng/mL. In addition, in assay [2], the “G. lesion ED50 (dose at which distension of the stomach and lesions in the glandular area are completely absent in 50% of the test rats)” value is 1.25 mg/kg. In assay [3], the median effective dose (ED50) amounted to 1.25 mg/kg.

With `O=C1NC(CCN2CCC(C(=O)c3ccc(F)cc3)CC2)Nc2ccccc21` (stereo not drawn) [2-[2-[4-(4-fluorobenzoyl)-1-piperidinyl]ethyl]-2,3-dihydro-4(1H)-quinazolinone], the “Caudal artery ED50 (minimal concentration which reduces the amplitude of the serotonin-induced contraction to at least 50% of its normal value)” value in assay [1] was 0.7 ng/mL. For the same molecule, the “G. lesion ED50 (dose at which distension of the stomach and lesions in the glandular area are completely absent in 50% of the test rats)” value in assay [2] is recorded as 2.5 mg/kg. Besides, the ED50 in assay [3] turned out to be 1.25 mg/kg.

For the molecule `Nc1cc(F)ccc1C(=O)C1CCN(CCn2c(=O)[nH]c3ccccc3c2=O)CC1` [3-[2-[4-(2-amino-4-fluorobenzoyl)-1-piperidinyl]ethyl]-2,4(1H,3H)-quinazolinedione], the “Caudal artery ED50 (minimal concentration which reduces the amplitude of the serotonin-induced contraction to at least 50% of its normal value)” value in assay [1] stood at 0.6 ng/mL. In assay [2], the “G. lesion ED50 (dose at which distension of the stomach and lesions in the glandular area are completely absent in 50% of the test rats)” value is reported as 1.25 mg/kg. Besides, the ED50 in assay [3] stood at 0.16 mg/kg.

Turning to `O=C(c1ccc(F)cc1)C1CCN(CCn2c(=S)[nH]c3ccccc3c2=O)CC1` [3-[2-[4-(4-fluorobenzoyl)-1-piperidinyl]ethyl]-2,3-dihydro-2-thioxo-4(1H)-quinazolinone], in assay [1], the “Caudal artery ED50 (minimal concentration which reduces the amplitude of the serotonin-induced contraction to at least 50% of its normal value)” value turned out to be 0.6 ng/mL. Moreover, the “G. lesion ED50 (dose at which distension of the stomach and lesions in the glandular area are completely absent in 50% of the test rats)” value in assay [2] turned out to be 0.08 mg/kg. Besides, the ED50 in assay [3] came to 0.04 mg/kg.

With `O=C(c1ccc(F)cc1)C1CCN(CCN2CNc3ccccc3C2=O)CC1` [3-[2-[4-(4-fluorobenzoyl)-1-piperidinyl]ethyl]-2,3-dihydro-4(1H)-quinazolinone], in assay [1], the “Caudal artery ED50 (minimal concentration which reduces the amplitude of the serotonin-induced contraction to at least 50% of its normal value)” value worked out at 5 ng/mL. In assay [2], the “G. lesion ED50 (dose at which distension of the stomach and lesions in the glandular area are completely absent in 50% of the test rats)” value was not below 2.5 mg/kg.

Consider `O=C(c1ccc(F)cc1)C1CCN(CCn2c(=O)[nH]c3ccccc3c2=O)CC1` [3-[2-[4-(4-fluorobenzoyl)-1-piperidinyl]ethyl]-2,4-(1H,3H)-quinazolinedione], for which the “Caudal artery ED50 (minimal concentration which reduces the amplitude of the serotonin-induced contraction to at least 50% of its normal value)” value in assay [1] is 0.7 ng/mL. In addition, the “G. lesion ED50 (dose at which distension of the stomach and lesions in the glandular area are completely absent in 50% of the test rats)” value in assay [2] is 0.16 mg/kg. Besides, the 50% effective dose (ED50) in assay [3] worked out at 0.08 mg/kg.

On to `Cc1nc2ccccc2c(=O)n1CCN1CCC(C(=O)c2ccc(F)cc2)CC1` [3-[2-[4-(4-fluorobenzoyl)-1-piperidinyl]ethyl]-2-methyl-4(3H)-quinazolinone], for which the “Caudal artery ED50 (minimal concentration which reduces the amplitude of the serotonin-induced contraction to at least 50% of its normal value)” value in assay [1] was 0.6 ng/mL. Moreover, the “G. lesion ED50 (dose at which distension of the stomach and lesions in the glandular area are completely absent in 50% of the test rats)” value in assay [2] was determined as 0.16 mg/kg. For the same molecule, the median effective dose (ED50) in assay [3] was 0.16 mg/kg.

`O=C(c1ccc(F)cc1)C1CCN(CCn2cnc3ccccc3c2=O)CC1` [3-[2-[4-(4-fluorobenzoyl)-1-piperidinyl]ethyl]-4(3H)-quinazolinone]: in assay [1], the “Caudal artery ED50 (minimal concentration which reduces the amplitude of the serotonin-induced contraction to at least 50% of its normal value)” value stood at 0.6 ng/mL. Also, in assay [2], the “G. lesion ED50 (dose at which distension of the stomach and lesions in the glandular area are completely absent in 50% of the test rats)” value turned out to be 0.31 mg/kg. Moreover, the ED50 in assay [3] was 0.31 mg/kg.

Take `COc1ccc2c(=O)n(CCN3CCC(C(=O)c4ccc(F)cc4)CC3)c(=O)[nH]c2c1` [3-[2-[4-(4-fluorobenzoyl)-1-piperidinyl]ethyl]-7-methoxy-2,4(1H,3H)-quinazolinedione]: the “Caudal artery ED50 (minimal concentration which reduces the amplitude of the serotonin-induced contraction to at least 50% of its normal value)” value in assay [1] amounted to 0.7 ng/mL. Moreover, the “G. lesion ED50 (dose at which distension of the stomach and lesions in the glandular area are completely absent in 50% of the test rats)” value in assay [2] amounted to 0.31 mg/kg. For the same molecule, the ED50 in assay [3] came to 0.16 mg/kg.

As to `O=c1[nH]c2ccccc2c(=O)n1CCN1CCC(C(O)c2ccc(F)cc2)CC1` (stereo not drawn) [3-[2-[4-[(4-fluorophenyl)hydroxymethyl]-1-piperidinyl]ethyl]-2,4(1H,3H)-quinazolinedione], in assay [1], the “Caudal artery ED50 (minimal concentration which reduces the amplitude of the serotonin-induced contraction to at least 50% of its normal value)” value was determined as 20 ng/mL. Besides, the “G. lesion ED50 (dose at which distension of the stomach and lesions in the glandular area are completely absent in 50% of the test rats)” value in assay [2] was found to be 1.25 mg/kg. The 50% effective dose (ED50) in assay [3] is 1.25 mg/kg.

With `O=C(O)/C=C/C(=O)O.O=C(c1ccc(F)cc1)C1CCN(CCCN2CNc3ccccc3C2=O)CC1` [3-[3-[4-(4-fluorobenzoyl)-1-piperidinyl]propyl]-2,3-dihydro-4-(1H)-quinazolinone (E)-2-butenedioate (1:1)], the “Caudal artery ED50 (minimal concentration which reduces the amplitude of the serotonin-induced contraction to at least 50% of its normal value)” value in assay [1] came to 10 ng/mL. Besides, the “G. lesion ED50 (dose at which distension of the stomach and lesions in the glandular area are completely absent in 50% of the test rats)” value in assay [2] was not below 2.5 mg/kg.

On to `O=C(O)/C=C/C(=O)O.O=C(c1ccc(F)cc1)C1CCN(CCCn2cnc3ccccc3c2=O)CC1` [3-[3-[4-(4-fluorobenzoyl)-1-piperidinyl]propyl]-4(3H)-quinazolinone (E)-2-butenedioate (1:1)], for which, in assay [1], the “Caudal artery ED50 (minimal concentration which reduces the amplitude of the serotonin-induced contraction to at least 50% of its normal value)” value was 5 ng/mL. In assay [2], the “G. lesion ED50 (dose at which distension of the stomach and lesions in the glandular area are completely absent in 50% of the test rats)” value is 2.5 mg/kg.

Consider `O=C(c1ccc(F)cc1)C1CCN(CCN2C(=O)Nc3ccc(Cl)cc3C2c2ccccc2)CC1` (stereo not drawn) [6-chloro-3-[2-[4-(4-fluorobenzoyl)-1-piperidinyl]ethyl]-3,4-dihydro-4-phenyl-2(1H)-quinazolinone], for which the “G. lesion ED50 (dose at which distension of the stomach and lesions in the glandular area are completely absent in 50% of the test rats)” value in assay [2] amounted to 0.63 mg/kg. In addition, in assay [3], the 50% effective dose (ED50) was determined as 0.63 mg/kg.
